Measurements as given in publication PMC10818416, “Design, Synthesis, and Evaluation of New Hybrid Derivatives of 5,6-Dihydro-4H-pyrrolo[3,2,1-ij]quinolin-2(1H)-one as Potential Dual Inhibitors of Blood Coagulation Factors Xa and XIa” (Molecules, 2024).
Where two headings read alike, the source gives them in different places.

What was measured:
Test in all cases: chromogenic substrate hydrolysis, […] nm
Assay type in all cases: biochemical
factor Xa (FXa) [1] = target: T1, factor Xa (FXa) (Homo sapiens, UniProt P00742)
T1 construct: gene F10
T1 sequence (P00742 41-179): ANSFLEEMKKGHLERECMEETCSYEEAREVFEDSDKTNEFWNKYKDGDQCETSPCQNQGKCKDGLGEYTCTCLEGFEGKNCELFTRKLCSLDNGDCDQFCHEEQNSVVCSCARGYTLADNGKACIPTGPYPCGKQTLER
T1 sequence (P00742 235-488): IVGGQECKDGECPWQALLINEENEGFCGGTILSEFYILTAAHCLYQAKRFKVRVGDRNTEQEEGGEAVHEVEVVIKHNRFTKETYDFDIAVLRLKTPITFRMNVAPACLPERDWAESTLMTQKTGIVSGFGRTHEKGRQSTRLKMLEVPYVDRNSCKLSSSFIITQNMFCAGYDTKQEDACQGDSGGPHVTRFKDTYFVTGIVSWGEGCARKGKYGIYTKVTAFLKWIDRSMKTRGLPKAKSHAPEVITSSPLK

factor XIa (FXIa) [2] = target: T2, factor XIa (FXIa) (Homo sapiens, UniProt P03951)
T2 construct: gene F11
T2 sequence (P03951 19-387): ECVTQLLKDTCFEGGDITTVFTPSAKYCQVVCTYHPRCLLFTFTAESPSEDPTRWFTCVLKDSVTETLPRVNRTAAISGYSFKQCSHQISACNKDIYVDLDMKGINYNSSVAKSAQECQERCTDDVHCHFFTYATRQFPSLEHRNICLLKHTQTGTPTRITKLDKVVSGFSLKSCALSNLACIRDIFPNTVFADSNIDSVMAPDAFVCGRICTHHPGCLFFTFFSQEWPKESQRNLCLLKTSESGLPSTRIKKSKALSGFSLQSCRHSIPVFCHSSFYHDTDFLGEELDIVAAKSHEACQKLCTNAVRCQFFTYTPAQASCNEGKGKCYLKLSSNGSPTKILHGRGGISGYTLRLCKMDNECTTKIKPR
T2 sequence (P03951 388-625): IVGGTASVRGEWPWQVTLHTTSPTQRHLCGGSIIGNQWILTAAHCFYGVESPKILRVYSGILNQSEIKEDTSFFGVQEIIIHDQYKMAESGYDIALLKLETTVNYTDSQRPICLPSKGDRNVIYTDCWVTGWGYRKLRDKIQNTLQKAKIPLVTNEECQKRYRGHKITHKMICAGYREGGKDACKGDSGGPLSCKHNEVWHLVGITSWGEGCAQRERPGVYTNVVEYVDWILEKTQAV

factor Xa (FXa) [3] = target: T1, factor Xa (FXa); conditions: […] enzyme, […] S2765, pH […], up to […] DMSO
factor XIa (FXIa) [4] = target: T2, factor XIa (FXIa); conditions: […] enzyme, […] S2366, pH […], up to […] DMSO
thrombin = target: T3, thrombin (Homo sapiens, UniProt P00734); conditions: […] enzyme, […] Tos-Gly-Pro-Arg-pNA, pH […], up to […] DMSO
T3 construct: gene F2

| IC50 (factor Xa (FXa) [1]) [µM] | IC50 (factor XIa (FXIa) [2]) [µM] | SMILES | also measured |
| --- | --- | --- | --- |
| 2.84 ± 0.04 | 12.2 ± 0.2 | COC(=O)/C=C1\SC(N/N=C2\C(=O)N3c4c2cc(Cl)cc4C(C)CC3(C)C)=NC1=O (stereo not shown) [3c, Methyl (Z)-2-(2-(2-((Z)-8-chloro-4,4,6-trimethyl-2-oxo-5,6-dihydro-4H-pyrrolo[3,2,1-ij]quinolin-1(2H)-ylidene)hydrazineyl)-4-oxothiazol-5(4H)-ylidene)acetate] |  |
|  |  | COC(=O)/C=C1\SC(N/N=C2\C(=O)N3c4c2cccc4C(C)(c2ccc(Cl)cc2)CC3(C)C)=NC1=O (stereo not shown) [3i, Methyl (Z)-2-(2-(2-((Z)-6-(4-chlorophenyl)-4,4,6-trimethyl-2-oxo-5,6-dihydro-4H-pyrrolo[3,2,1-ij]quinolin-1(2H)-ylidene)hydrazineyl)-4-oxothiazol-5(4H)-ylidene)acetate] | Percent Inhibition at 30 μM / Xa (factor Xa (FXa) [3]): 87% |
| 5.76 ± 1.08 | 8.1 ± 0.2 | COC(=O)/C=C1\SC(N/N=C2\C(=O)N3c4c2cc(OC)cc4C(C)CC3(C)C)=NC1=O (stereo not shown) [3b, Methyl (Z)-2-(2-(2-((Z)-8-methoxy-4,4,6-trimethyl-2-oxo-5,6-dihydro-4H-pyrrolo[3,2,1-ij]quinolin-1(2H)-ylidene)hydrazineyl)-4-oxothiazol-5(4H)-ylidene)acetate] |  |
|  |  | COC(=O)/C=C1\SC(N/N=C2\C(=O)N3c4c2cc(Br)cc4C(C)CC3(C)C)=NC1=O (stereo not shown) [3d, Methyl (Z)-2-(2-(2-((Z)-8-bromo-4,4,6-trimethyl-2-oxo-5,6-dihydro-4H-pyrrolo[3,2,1-ij]quinolin-1(2H)-ylidene)hydrazineyl)-4-oxothiazol-5(4H)-ylidene)acetate] | Percent Inhibition at 30 μM / XIa (factor XIa (FXIa) [4]): 96% |
| 1.34 ± 0.16 | 7.21 ± 0.22 | COC(=O)/C=C1\SC(N/N=C2\C(=O)N3c4c2cc(Cl)cc4C(C)(c2ccccc2)CC3(C)C)=NC1=O (stereo not shown) [3o, Methyl (Z)-2-(2-(2-((Z)-8-chloro-4,4,6-trimethyl-2-oxo-6-phenyl-5,6-dihydro-4H-pyrrolo[3,2,1-ij]quinolin-1(2H)-ylidene)hydrazineyl)-4-oxothiazol-5(4H)-ylidene)acetate] |  |
| 1.86 ± 0.07 | 11.5 ± 0.98 | COC(=O)/C=C1\SC(N/N=C2\C(=O)N3c4c2cccc4C(C)(c2ccccc2)CC3(C)C)=NC1=O (stereo not shown) [3n, Methyl (Z)-2-(4-oxo-2-(2-((Z)-4,4,6-trimethyl-2-oxo-6-phenyl-5,6-dihydro-4H-pyrrolo[3,2,1-ij]quinolin-1(2H)-ylidene)hydrazineyl)thiazol-5(4H)-ylidene)acetate] |  |
|  |  | COC(=O)C=C1SC(NN=C2C(=O)N3c4c2cc(I)cc4C(C)CC3(C)C)=NC1=O (mixture of isomers) [3e, Methyl 2-(2-(2-(8-iodo-4,4,6-trimethyl-2-oxo-5,6-dihydro-4H-pyrrolo[3,2,1-ij]quinolin-1(2H)-ylidene)hydrazineyl)-4-oxothiazol-5(4H)-ylidene)acetate] | Percent Inhibition of Thrombin at 30 μM (thrombin): 96%; IC50 (factor Xa (FXa) [1]; […] enzyme, […] S2765, pH […], up to […] DMSO): 4.23 ± 0.31 µM; IC50 (factor XIa (FXIa) [2]; […] enzyme, […] S2366, pH […], up to […] DMSO): 8.03 ± 0.68 µM |
| 4.02 ± 0.6 | 7.97 ± 0.63 | COC(=O)/C=C1\SC(N/N=C2\C(=O)N3c4c(cc(C)c(C)c42)C(C)CC3(C)C)=NC1=O (stereo not shown) [3f, Methyl (Z)-2-(4-oxo-2-(2-((Z)-4,4,6,8,9-pentamethyl-2-oxo-5,6-dihydro-4H-pyrrolo[3,2,1-ij]quinolin-1(2H)-ylidene)hydrazineyl)thiazol-5(4H)-ylidene)acetate] |  |
| 1.74 ± 0.21 | 3.61 ± 1.7 | COC(=O)/C=C1\SC(N/N=C2\C(=O)N3c4c2cc(Br)cc4C(C)(c2ccc(Cl)cc2)CC3(C)C)=NC1=O (stereo not shown) [3l, Methyl (Z)-2-(2-(2-((Z)-8-bromo-6-(4-chlorophenyl)-4,4,6-trimethyl-2-oxo-5,6-dihydro-4H-pyrrolo[3,2,1-ij]quinolin-1(2H)-ylidene)hydrazineyl)-4-oxothiazol-5(4H)-ylidene)acetate] |  |
| 1.17 ± 0.26 | 4.59 ± 0.54 | COC(=O)/C=C1\SC(N/N=C2\C(=O)N3c4c2cc(Cl)cc4C(C)(c2ccc(Cl)cc2)CC3(C)C)=NC1=O (stereo not shown) [3k, Methyl (Z)-2-(2-(2-((Z)-8-chloro-6-(4-chlorophenyl)-4,4,6-trimethyl-2-oxo-5,6-dihydro-4H-pyrrolo[3,2,1-ij]quinolin-1(2H)-ylidene)hydrazineyl)-4-oxothiazol-5(4H)-ylidene)acetate] |  |
| 1.83 ± 0.05 | 3.87 ± 0.33 | COC(=O)/C=C1\SC(N/N=C2\C(=O)N3c4c2cc(Br)cc4C(C)(c2ccccc2)CC3(C)C)=NC1=O (stereo not shown) [3p, Methyl (Z)-2-(2-(2-((Z)-8-bromo-4,4,6-trimethyl-2-oxo-6-phenyl-5,6-dihydro-4H-pyrrolo[3,2,1-ij]quinolin-1(2H)-ylidene)hydrazineyl)-4-oxothiazol-5(4H)-ylidene)acetate] |  |
|  |  | COC(=O)C=C1SC(NN=C2C(=O)N3c4c2cc(C)cc4C(C)(c2ccc(Cl)cc2)CC3(C)C)=NC1=O (mixture of isomers) [3j, Methyl 2-(2-(2-(6-(4-chlorophenyl)-4,4,6,8-tetramethyl-2-oxo-5,6-dihydro-4H-pyrrolo[3,2,1-ij]quinolin-1(2H)-ylidene)hydrazineyl)-4-oxothiazol-5(4H)-ylidene)acetate] | Percent Inhibition at 30 μM / XIa (factor XIa (FXIa) [4]): 83% |
